Experimental data reported in patent US7256207B2, “Inhibitors of cathepsin S” (IRM LLC, priority 2003, dated 2007).

Key:
Format in all cases: biochemical
Cathepsin S = Cathepsin S (Homo sapiens, UniProt P25774); experiment: Cathepsin S inhibition assay, fluorogenic peptide substrate; conditions: Cathepsin S inhibition constant; pH5.5, 20 minutes preincubation at room temperature; read-out: Ki Cat. S
Experimental: (§1) The optimal substrate for cathepsin S, acetyl-histidine-proline-valine-lysine-amino carbamoyl coumarin, was identified from screening a combinatorial library of fluorogenic peptide substrates (Harris, J. L., B. J. Backes, et al. Proc Natl Acad Sci U S A 2000, 97(14), 7754-9). Kinetic measurements are performed in a total reaction volume of 30 μl in 384-well microtiter plates. Cathepsin S, at a final concentration of 0.3-3 nM (active site), is incubated with the compounds at twelve varying concentrations in a buffer containing 100 mM NaAc (pH5.5), 1 mM EDTA, 100 mM NaCl, 0.01% Brij-35 for 20 minutes at room temperature. Control reactions in the absence of inhibitor are performed in replicates of 24. The reactions are initiated by adding the substrate, acetyl-histidine-proline-valine-lysine-amino carbamoyl coumarin, to a final concentration of 50 μM. The rate of substrate hydrolysis is measured by monitoring the increase in fluorescence at an excitation wavelength of 380 nm and an emission wavelength of 450 nm that results from cleavage of the aniline bond in the substrate by the enzyme. The apparent inhibition constants for the compounds are determined from the enzyme progress curves (Kuzmic, P., K. C. Elrod, et al. Anal Biochem 2000, 286(1), 45-50) and are then used to calculate the inhibition constants for competitive inhibitors.

Cathepsin K = molecular target: T1, Cathepsin K (Homo sapiens, UniProt P43235); experiment: Cathepsin K inhibition assay, fluorogenic peptide substrate (selectivity for Cat. S over Cat. K); conditions: ratio of cathepsin K inhibition constant to cathepsin S inhibition constant
T1 sequence (P43235 115-329): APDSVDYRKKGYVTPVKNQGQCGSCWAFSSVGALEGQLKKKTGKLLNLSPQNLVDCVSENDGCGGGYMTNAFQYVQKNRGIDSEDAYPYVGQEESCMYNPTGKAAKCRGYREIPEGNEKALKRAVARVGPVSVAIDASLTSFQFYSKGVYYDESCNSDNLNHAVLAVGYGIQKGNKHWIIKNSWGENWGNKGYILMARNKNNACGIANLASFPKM
Experimental: as §1, with “cathepsin K, acetyl-lysine-histidine-proline-lysine-amino” for “cathepsin S, acetyl-histidine-proline-valine-lysine-amino”, “Cathepsin K,” for “Cathepsin S,”, “of 3.5” for “of 0.3-3”, “substrate, acetyl-lysine-histidine-proline-lysine-amino” for “substrate, acetyl-histidine-proline-valine-lysine-amino”, “of 40” for “of 50”
(§2) Selectivity for cathepsin S in the presence of cathepsin isozymes was determined by the ratio of the cathepsin isozyme inhibition constant of a compound of the present invention to the cathepsin S inhibition constant of the same compound. Preferred compounds of the present invention selective for cathepsin S have ratios of greater than 10. More preferred compounds of the present invention selective for cathepsin S have ratios of greater than 100. Most preferred compounds of the present invention selective for cathepsin S have ratios of greater than 1000.

Cathepsin L = Cathepsin L (Homo sapiens, UniProt P07711); experiment: Cathepsin L inhibition assay, fluorogenic peptide substrate (selectivity for Cat. S over Cat. L); conditions: ratio of cathepsin L inhibition constant to cathepsin S inhibition constant
Chain of Cathepsin L (P07711 114-333, species assumed): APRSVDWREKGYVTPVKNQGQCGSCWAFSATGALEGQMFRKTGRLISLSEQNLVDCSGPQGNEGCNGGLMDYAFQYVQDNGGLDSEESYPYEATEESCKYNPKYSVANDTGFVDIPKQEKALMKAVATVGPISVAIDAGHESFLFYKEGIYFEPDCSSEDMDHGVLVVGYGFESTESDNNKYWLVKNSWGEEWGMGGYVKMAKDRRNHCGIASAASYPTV
Experimental: as §1, with “cathepsin L, acetyl-histidine-lysine-phenylalanine-lysine-amino” for “cathepsin S, acetyl-histidine-proline-valine-lysine-amino”, “Cathepsin L,” for “Cathepsin S,”, “of 0.1” for “of 0.3-3”, “substrate, acetyl-histidine-lysine-phenylalanine-lysine-amino” for “substrate, acetyl-histidine-proline-valine-lysine-amino”, “of 20” for “of 50”
as §2

Cathepsin B = Cathepsin B (Homo sapiens, UniProt P07858); experiment: Cathepsin B inhibition assay, fluorogenic peptide substrate (selectivity for Cat. S over Cat. B); conditions: ratio of cathepsin B inhibition constant to cathepsin S inhibition constant
Experimental: as §1, with “B,” for “S,”, “1.5” for “0.3-3”, “[…].” for “50 μM.”
as §2

Chain of Cathepsin S (P25774 115-331, species assumed): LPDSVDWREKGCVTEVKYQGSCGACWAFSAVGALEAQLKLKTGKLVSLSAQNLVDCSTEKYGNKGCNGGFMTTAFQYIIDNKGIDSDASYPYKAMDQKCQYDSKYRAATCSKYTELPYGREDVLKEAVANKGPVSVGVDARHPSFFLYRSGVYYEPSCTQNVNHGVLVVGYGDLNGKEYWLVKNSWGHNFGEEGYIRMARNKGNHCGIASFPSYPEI

Compound	Ki (Cathepsin S)	Selectivity for Cat. S over Cat. K (Cathepsin K)	Selectivity for Cat. S over Cat. L (Cathepsin L)	Selectivity for Cat. S over Cat. B (Cathepsin B)
CC(C)(C)C[C@H](Cn1cnc2cc(Cl)c(Cl)cc21)OC(=O)N[C@@H](CO)CN1CCc2cc(F)ccc21 [Example 1, 1-(R)-(5,6-Dichloro-benzimidazol-1-ylmethyl)-3,3-dimethyl-butyl [2-(5-fluoro-2,3-dihydro-indol-1-yl)-1-(R)-hydroxymethyl-ethyl]carbamate]	< 10000 nM	− (−, <10)	+ (+, >10)	+ (+, >10)
C[C@@H](CN1CCc2cc(F)ccc21)NC(=O)O[C@H](Cn1cnc2ccccc21)CC(C)(C)C [Example 4, 1-(S)-(Benzimidazol-1-ylmethyl-3,3-dimethyl)-butyl [2-(5-fluoro-2,3-dihydro-indol-1-yl)-1-(S)-methyl-ethyl]carbamate]	< 100 nM	+ (+, >10)	++ (++, >100)	+++ (+++, >1000)
C[C@@H](CNc1ccc(OC(F)F)cc1)NC(=O)O[C@@H](CC1CCCC1)Cn1cnc2cc(Cl)c(Cl)cc21 [Example 8, 1-(S)-Cyclopentylmethyl-2-(5,6-dichloro-benzimidazol-1-yl)-ethyl [2-(4-difluoromethoxy-phenylamino)-1-(S)-methyl-ethyl]carbamate]	< 1000 nM	+ (+, >10)	++ (++, >100)	+++ (+++, >1000)
C[C@@H](CN1CCc2cc(F)ccc21)NC(=O)O[C@H](CN1CCOCC1)CC(C)(C)C [Example 5, 3,3-Dimethyl-(S)-1-morpholin-4-ylmethyl-butyl [2-(5-fluoro-2,3-dihydro-indol-1-yl)-1-(S)-methyl-ethyl]carbamate]	< 1000 nM	− (−, <10)	++ (++, >100)	++ (++, >100)
CC(C)(C)C[C@@H](Cn1cnc2ccccc21)OC(=O)N[C@@H](CO)CN1CCc2cc(F)ccc21 [Example 12, 1-(S)-(Benzimidazol-1-ylmethyl)-3,3-dimethyl-butyl [2-(5-fluoro-2,3-dihydro-indol-1-yl)-1-(R)-hydroxymethyl-ethyl]carbamate]	< 100 nM	− (−, <10)	++ (++, >100)	+++ (+++, >1000)

Continued, values first:

Ki (Cathepsin S)	Selectivity for Cat. S over Cat. K (Cathepsin K)	Selectivity for Cat. S over Cat. L (Cathepsin L)	Selectivity for Cat. S over Cat. B (Cathepsin B)	Compound
< 100 nM	+ (+, >10)	− (−, <10)	+ (+, >10)	CC(C)(C)C(Cn1cnc2cc(Cl)c(Cl)cc21)OC(=O)N[C@@H](CO)CN1CCc2cc(F)ccc21 (mixture of isomers) [Example 3, 1-(5,6-Dichloro-benzimidazol-1-ylmethyl)-2,2-dimethyl-propyl [2-(5-fluoro-2,3-dihydro-indol-1-yl)-1-(R)-hydroxymethyl-ethyl]carbamate]
< 100 nM	+ (+, >10)	+ (+, >10)	+++ (+++, >1000)	C[C@@H](CNc1ccc(OC(F)(F)F)cc1)NC(=O)O[C@@H](CC1CCCC1)Cn1cnc2cc(Cl)c(Cl)cc21 [Example 10, 1-(S)-Cyclopentylmethyl-2-(5,6-dichloro-benzimidazol-1-yl)-ethyl [2-(4-trifluoromethoxy-phenylamino)-1-(S)-methyl-ethyl]carbamate]
< 100 nM	− (−, <10)	++ (++, >100)	+++ (+++, >1000)	C[C@@H](CN1CC(C)(C)c2cc(F)ccc21)NC(=O)O[C@H](Cn1cnc2ccccc21)CC(C)(C)C [Example 11, 1-(S)-(Benzimidazol-1-ylmethyl-3,3-dimethyl)-butyl [2-(5-fluoro-3,3-dimethyl-2,3-dihydro-indol-1-yl)-1-(S)-methyl-ethyl]carbamate]
< 100 nM	+ (+, >10)	++ (++, >100)	+++ (+++, >1000)	C[C@@H](CN1CCc2cc(F)ccc21)NC(=O)O[C@@H](CC1CCCC1)Cn1cnc2ccccc21 [Example 6, 2-(Benzimidazol-1-yl)-1-(S)-cyclopentylmethyl-ethyl [2-(5-fluoro-2,3-dihydro-indol-1-yl)-1-(S)-methyl-ethyl]carbamate]
< 100 nM	+ (+, >10)	+ (+, >10)	+++ (+++, >1000)	C[C@@H](CN1CCc2cc(F)ccc21)NC(=O)O[C@@H](CC1CCCC1)Cn1cnc2cc(Cl)c(Cl)cc21 [Example 9, 1-(S)-cyclopentylmethyl-2-(5,6-dichloro-benzimidazol-1-yl)-ethyl [2-(5-fluoro-2,3-dihydro-indol-1-yl)-1-(S)-methyl-ethyl]carbamate]
< 100 nM	++ (++, >100)	+ (+, >10)	+++ (+++, >1000)	CC(C)(C)C[C@@H](Cn1cnc2cc(Cl)c(Cl)cc21)OC(=O)N[C@@H](CO)CN1CCc2cc(F)ccc21 [Example 2, 1-(S)-(5,6-Dichloro-benzimidazol-1-ylmethyl)-3,3-dimethyl-butyl [2-(5-fluoro-2,3-dihydro-indol-1-yl)-1-(R)-hydroxymethyl-ethyl]carbamate]
